Our source for the Dmax and DC50 values is patent US12624044B2, “SMARCA degraders and uses thereof” (Kymera Therapeutics, Inc., priority 2019, dated 2026).

What all share (format): cell-based
For one assay, the target named is T1, SMARCA4 (Homo sapiens, UniProt P51532).
T1 construct: SMARCA2 and SMARCA4 protein degradation in MV4-11 cells; endogenous in cells; host or cells: MV4-11
Briefly: SMARCA4 Western blot MV4-11 degradation. Conditions: 24 h; for Dmax: MV4-11, MV4-11 cells, read-out: SMARCA4 WB MV411 degradation 24 h: Average Dmax %; for DC50: MV4-11 cells, read-out: SMARCA4 WB MV411 degradation 24 h: Average external-Abs DC50. The protocol:
Cells were seeded into 6-well plates (MV4-11: 4×10^6 cells/well/1 ml) and 1 ml of 2× compound solution was added into the well to make the final concentration and the plates were mixed well and incubated for 24 hours (No cytotoxicity was observed). The cell were collected with media and spun at 3000 rpm for 5 minutes. The supernatant was aspirated and the well and the cells were washed with cold PBS once and combined for centrifugation again; the supernatant aspirated again. 200 ul pre-chilled RIPAlysis buffer (Boston BioProducts BP-115D) with protease/phosphatase inhibitor (Roche 05892791001/Roche 04906837001) was directly added into the tube to lyze the cells for 20 minutes on ice. The cell lysate were collected into EP tubes and spun at 13000 rpm for 20 minutes and 72 ul supernatant was transferred to a fresh EP tube containing 18 ul of 5× loading buffer (Beyotime Bio P0015) to make the loading samples. The samples were heated to 100° C. for 10 minutes and cooled to RT and microcentrifuged. 20 ul of samples were loaded onto SDS-PAGE gel (Novex, WG1402BOX) and the gel was run at 80 V for 20 minutes and 120 V for 1.5 hours. The samples were electrotransfer to a NC membrane using wet-transfer method with 250 mA for 2.5 hours. The membrane was blocked with LICOR blocking buffer (LI-COR, 927-50000) for 1 hour. The membrane was washed three times with TBST (CST #9997S), 5 minutes each. Incubation was performed with primary antibody prepared in blocking buffer with 0.1% Tween-20 (Solarbio, P8220) at 4° C. overnight (Anti-SMARCA2/BRM antibody (ab15597) 1:500; Anti-BRG1 antibody [EPR3912] (ab108318) 1:1000; Rabbit anti-Baf180 antibody [EPR15860] (Abcam, ab196022) 1:1000; mouse anti-beta-Actin (8H10D10) (CST #3700) 1:10000). The membrane was washed three times with TBST, 5 minutes each. Incubation with secondary antibody was performed for 1 hour at RT (anti-rabbit IgG (Licor, 926-32211) 1:5000; anti-mouse IgG (LI-COR, 926-68070) 1:5000). The membrane was washed three times with TBST, 5 minutes each and lastly the LiCOR was read.
The letter codes for the percentage of SMARCA degradation after 24 hours (Dmax %) include: A (>90% degradation), B (>70-90% degradation), C (50-70% degradation), and D (<50% degradation).

The target of assay [1] is T2, SMARCA2 (Homo sapiens, UniProt P51531). Briefly: MSD SMARCA2 degradation in NCI-H1299 cell line (24 h). Further details: HC: NCI-H1299 cells treated with DMSO; host or cells: NCI-H1299. The settings on record: for Dmax: NCI-H1299, NCI-H1299 cells; for DC50: NCI-H1299 cells, read-out: SMARCA2 MSD H1299 degradation 24 h: External Abs-DC50. The method in brief: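 SMARCA2 measured by MSD electrochemiluminescence (primary 0.3 ug/ml, secondary 1 ug/ml) on lysates from NCI-H1299 cells exposed to compounds for 24 h across nine 3-fold dilutions. Signal scaled from A2780 cells (no SMARCA2) to DMSO-treated H1299 controls, and maximal degradation after 24 h reported in letter categories.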

For assay [2], the target named is T2, SMARCA2. The assay can be described thus: MSD SMARCA2 degradation in A549 cell line. The settings on record: 24 h; for Dmax: A549, A549 cells; for DC50: A549 cells, read-out: SMARCA2 MSD A549 degradation 24 h: Average external-Abs DC50. The method in brief:
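SMARCA2 remaining was measured by MSD electrochemiluminescence on RIPA lysates (anti-SMARCA2 plus SULFO-TAG anti-rabbit). Prior exposure: 24 h of A549 cells to a 10-point, 3-fold dilution series topping at 1000 nM final; Dmax % given as graded codes.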

T1 sequence (P51532 whole entry): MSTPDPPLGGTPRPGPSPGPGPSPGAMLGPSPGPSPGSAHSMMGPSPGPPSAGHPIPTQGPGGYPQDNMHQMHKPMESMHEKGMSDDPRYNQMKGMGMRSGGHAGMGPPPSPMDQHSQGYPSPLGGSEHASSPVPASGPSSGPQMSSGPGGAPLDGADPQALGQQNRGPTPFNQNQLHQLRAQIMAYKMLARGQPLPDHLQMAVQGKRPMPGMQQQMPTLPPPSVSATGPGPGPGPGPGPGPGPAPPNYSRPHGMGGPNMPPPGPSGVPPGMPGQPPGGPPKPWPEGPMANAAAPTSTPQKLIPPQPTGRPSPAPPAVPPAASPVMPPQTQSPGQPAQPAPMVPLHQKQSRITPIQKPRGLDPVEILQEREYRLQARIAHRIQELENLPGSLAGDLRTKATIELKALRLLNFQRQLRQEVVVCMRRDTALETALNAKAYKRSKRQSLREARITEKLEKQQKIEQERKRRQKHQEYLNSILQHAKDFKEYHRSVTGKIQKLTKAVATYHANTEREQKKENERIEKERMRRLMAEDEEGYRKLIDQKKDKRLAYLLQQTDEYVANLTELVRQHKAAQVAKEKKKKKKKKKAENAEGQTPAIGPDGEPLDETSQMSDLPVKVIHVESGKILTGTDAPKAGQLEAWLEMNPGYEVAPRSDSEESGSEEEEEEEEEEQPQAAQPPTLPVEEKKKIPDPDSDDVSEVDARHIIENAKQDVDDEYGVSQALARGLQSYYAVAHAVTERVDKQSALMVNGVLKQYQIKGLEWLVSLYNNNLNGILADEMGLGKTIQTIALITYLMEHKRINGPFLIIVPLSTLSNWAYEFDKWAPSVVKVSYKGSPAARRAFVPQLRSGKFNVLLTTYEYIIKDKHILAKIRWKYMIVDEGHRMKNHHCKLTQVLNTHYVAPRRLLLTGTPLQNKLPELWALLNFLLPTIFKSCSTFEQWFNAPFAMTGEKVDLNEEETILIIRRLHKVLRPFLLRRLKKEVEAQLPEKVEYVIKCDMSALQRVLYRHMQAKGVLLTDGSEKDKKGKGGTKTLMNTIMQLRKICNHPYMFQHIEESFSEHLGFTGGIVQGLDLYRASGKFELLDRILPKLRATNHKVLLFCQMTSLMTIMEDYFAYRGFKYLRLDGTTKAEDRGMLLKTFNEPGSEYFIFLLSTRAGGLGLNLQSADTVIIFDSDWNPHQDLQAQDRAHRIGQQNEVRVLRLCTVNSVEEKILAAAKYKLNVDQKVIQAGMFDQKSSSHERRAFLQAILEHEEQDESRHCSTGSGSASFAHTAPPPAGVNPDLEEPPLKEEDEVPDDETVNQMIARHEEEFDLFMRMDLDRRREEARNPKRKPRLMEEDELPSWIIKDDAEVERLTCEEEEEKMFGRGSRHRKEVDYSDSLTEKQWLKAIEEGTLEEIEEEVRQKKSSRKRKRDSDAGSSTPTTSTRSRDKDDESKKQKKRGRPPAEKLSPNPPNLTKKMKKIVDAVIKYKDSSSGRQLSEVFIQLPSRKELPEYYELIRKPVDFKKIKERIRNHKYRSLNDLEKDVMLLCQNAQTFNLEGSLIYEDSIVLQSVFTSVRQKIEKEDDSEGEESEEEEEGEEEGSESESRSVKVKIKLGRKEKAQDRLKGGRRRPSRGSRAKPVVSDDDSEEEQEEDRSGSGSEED
T2 sequence (P51531 whole entry): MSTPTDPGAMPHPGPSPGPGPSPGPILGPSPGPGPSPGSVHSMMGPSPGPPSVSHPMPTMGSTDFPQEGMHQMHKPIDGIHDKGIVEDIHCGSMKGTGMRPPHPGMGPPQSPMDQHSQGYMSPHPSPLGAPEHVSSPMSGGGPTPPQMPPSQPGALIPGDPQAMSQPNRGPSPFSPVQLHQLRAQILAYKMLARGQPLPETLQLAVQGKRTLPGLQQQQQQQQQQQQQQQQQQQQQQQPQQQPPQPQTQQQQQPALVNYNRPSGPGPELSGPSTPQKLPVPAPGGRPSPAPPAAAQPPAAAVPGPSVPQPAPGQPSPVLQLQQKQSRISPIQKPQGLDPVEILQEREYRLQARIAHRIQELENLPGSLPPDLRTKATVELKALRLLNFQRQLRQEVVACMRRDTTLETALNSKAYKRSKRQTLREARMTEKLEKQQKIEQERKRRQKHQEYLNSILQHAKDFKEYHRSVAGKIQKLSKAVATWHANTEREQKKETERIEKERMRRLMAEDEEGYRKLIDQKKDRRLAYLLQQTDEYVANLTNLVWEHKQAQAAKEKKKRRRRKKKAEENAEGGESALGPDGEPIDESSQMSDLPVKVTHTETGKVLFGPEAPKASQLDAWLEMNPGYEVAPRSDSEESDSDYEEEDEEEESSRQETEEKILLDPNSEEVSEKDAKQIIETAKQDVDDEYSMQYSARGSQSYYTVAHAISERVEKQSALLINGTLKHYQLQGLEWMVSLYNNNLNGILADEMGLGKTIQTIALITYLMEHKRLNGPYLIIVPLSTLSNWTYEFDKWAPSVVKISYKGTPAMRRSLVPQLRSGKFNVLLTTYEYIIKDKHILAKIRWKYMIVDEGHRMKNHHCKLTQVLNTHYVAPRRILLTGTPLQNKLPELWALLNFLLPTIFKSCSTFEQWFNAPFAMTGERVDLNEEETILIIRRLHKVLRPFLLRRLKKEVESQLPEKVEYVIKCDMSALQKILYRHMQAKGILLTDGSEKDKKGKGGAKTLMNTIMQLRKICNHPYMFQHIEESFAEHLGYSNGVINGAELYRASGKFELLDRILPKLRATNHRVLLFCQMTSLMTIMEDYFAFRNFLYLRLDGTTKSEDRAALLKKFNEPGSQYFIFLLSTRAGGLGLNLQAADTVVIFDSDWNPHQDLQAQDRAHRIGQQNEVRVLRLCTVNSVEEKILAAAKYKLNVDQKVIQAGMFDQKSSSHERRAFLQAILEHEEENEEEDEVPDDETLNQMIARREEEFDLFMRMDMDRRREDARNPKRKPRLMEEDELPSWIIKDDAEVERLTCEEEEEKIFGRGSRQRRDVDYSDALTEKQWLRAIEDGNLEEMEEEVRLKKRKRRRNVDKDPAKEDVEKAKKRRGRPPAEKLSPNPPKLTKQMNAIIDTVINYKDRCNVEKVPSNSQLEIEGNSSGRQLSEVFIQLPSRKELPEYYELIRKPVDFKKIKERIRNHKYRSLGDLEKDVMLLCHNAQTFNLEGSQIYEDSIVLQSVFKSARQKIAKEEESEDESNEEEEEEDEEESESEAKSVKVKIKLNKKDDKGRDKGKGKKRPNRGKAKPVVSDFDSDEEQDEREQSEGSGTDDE

With `Cc1ncsc1-c1ccc(CNC(=O)[C@@H]2C[C@@H](O)CN2C(=O)[C@@H](NC(=O)CCCCN2CCC(n3cc(-c4cc(-c5ccccc5O)nnc4N)cn3)CC2)C(C)(C)C)cc1` [I-460], on SMARCA4, the maximal degradation (Dmax) was under 50% and the DC50 was 100 to 500 nM. In addition, on SMARCA2 [1], the Dmax was under 50% and the DC50 is 100 to 500 nM.

Take `Cc1ncsc1-c1ccc(CNC(=O)[C@@H]2C[C@@H](O)CN2C(=O)[C@@H](NC(=O)CN2CCN(Cc3ccc(-c4cc(-c5ccccc5O)nnc4N)cc3)CC2)C(C)(C)C)cc1` [I-473]: on SMARCA4, the greatest degradation seen (Dmax) was under 50% and the half-maximal degradation concentration (DC50) was 100 to 500 nM. Also, at SMARCA2 [1], the Dmax was under 50% and the DC50 fell in the range of 100 to 500 nM.

As to `Cc1ncsc1-c1ccc(CNC(=O)[C@@H]2C[C@@H](O)CN2C(=O)[C@@H](NC(=O)CN2CCCC(n3cc(-c4cc(-c5ccccc5O)nnc4N)cn3)C2)C(C)(C)C)cc1` (stereo partly shown) [I-452], at SMARCA4, the Dmax is under 50% and the DC50 fell in the range of 100 to 500 nM. Besides, on SMARCA2 [1], the Dmax was under 50% and the DC50 is over 1000 nM.

Take `Cc1ncsc1-c1ccc(CNC(=O)[C@@H]2C[C@@H](O)CN2C(=O)[C@@H](NC(=O)CCCN2CCC(n3cc(-c4cc(-c5ccccc5O)nnc4N)cn3)CC2)C(C)(C)C)cc1` [I-459]: on SMARCA4, the Dmax was under 50% and the half-maximal degradation concentration (DC50) fell in the range of 100 to 500 nM. On SMARCA2 [1], the greatest degradation seen (Dmax) was under 50% and the DC50 lay in the range of 100 to 500 nM.

`Cc1ncsc1-c1ccc(CNC(=O)[C@@H]2C[C@@H](O)CN2C(=O)[C@@H](NC(=O)CN2CCC(Cn3cc(-c4cc(-c5ccccc5O)nnc4N)cn3)CC2)C(C)(C)C)cc1` [I-465]: at SMARCA4, the Dmax was under 50% and the DC50 was 100 to 500 nM. On SMARCA2 [1], the Dmax was under 50% and the half-maximal degradation concentration (DC50) is over 1000 nM.

Turning to `Cc1ncsc1-c1ccc(CNC(=O)[C@@H]2C[C@@H](O)CN2C(=O)[C@@H](NC(=O)CCCN2CCC(Cn3cc(-c4cc(-c5ccccc5O)nnc4N)cn3)CC2)C(C)(C)C)cc1` [I-467], on SMARCA4, the maximal degradation (Dmax) is under 50% and the DC50 was in the range of 100 to 500 nM. Also, at SMARCA2 [1], the Dmax was under 50% and the half-maximal degradation concentration (DC50) is 100 to 500 nM.

Consider `CN(CCCCCc1cnc(N2C3CCC2CN(c2cc(-c4ccccc4O)nnc2N)C3)nc1)Cc1ccc2c(c1)n(C)c(=O)n2C1CCC(=O)NC1=O` (stereo not shown) [I-283], for which, at SMARCA4, the Dmax was over 90% and the DC50 was under 100 nM. At SMARCA2 [1], the Dmax was over 90% and the DC50 is under 100 nM.

Consider `CN(CCCC#Cc1cnc(N2C3CCC2CN(c2cc(-c4ccccc4O)nnc2N)C3)nc1)Cc1ccc2c(c1)n(C)c(=O)n2C1CCC(=O)NC1=O` (stereo not shown) [I-298], for which, at SMARCA4, the Dmax was over 90% and the half-maximal degradation concentration (DC50) was under 100 nM. Further, at SMARCA2 [1], the greatest degradation seen (Dmax) is over 90% and the DC50 was under 100 nM.

As to `Cc1ncsc1-c1ccc(CNC(=O)[C@@H]2C[C@@H](O)CN2C(=O)[C@@H](NC(=O)C[C@H]2C[C@@H](N3CCC(c4cnc(N5C6CCC5CN(c5cc(-c7ccccc7O)nnc5N)C6)nc4)CC3)C2)C(C)(C)C)cc1` [I-392], at SMARCA2 [2], the Dmax lay in the range of 70 to 90% and the DC50 was 100 to 500 nM.

Regarding `Cn1c(=O)n(C2CCC(=O)NC2=O)c2cccc(CCCOC3CCN(Cc4cccc(C#Cc5cc(NC(=O)Nc6cc(F)ncc6CO)ccn5)c4)CC3)c21` (stereo not shown) [I-315], at SMARCA2 [2], the greatest degradation seen (Dmax) was under 50% and the DC50 was over 1000 nM.

Take `Cc1ncsc1-c1ccc(CNC(=O)[C@@H]2C[C@@H](O)CN2C(=O)[C@@H](NC(=O)[C@H]2CC[C@H](N3CCC(N4CCC(n5cc(-c6cc(-c7ccccc7O)nnc6N)cn5)CC4)CC3)CC2)C(C)(C)C)cc1` [I-400, (2S,4R)-1-((S)-2-((1r,4S)-4-(4-(4-(3-amino-6-(2-hydroxyphenyl)pyridazin-4-yl)-1H-pyrazol-1-yl)-[1,4′-bipiperidin]-1′-yl)cyclohexanecarboxamido)-3,3-dimethylbutanoyl)-4-hydroxy-N-(4-(4-methylthiazol-5-yl)benzyl)pyrrolidine-2-carboxamide]: at SMARCA2 [2], the Dmax lay within 70 to 90% and the DC50 lay within 501 to 1000 nM.

In the case of `Cc1ncsc1-c1ccc(CNC(=O)[C@@H]2C[C@@H](O)CN2C(=O)[C@@H](NC(=O)CCCN2CCC(c3ccc(C#Cc4cc(NC(=O)Nc5cc(F)ncc5CO)ccn4)cc3)CC2)C(C)(C)C)cc1` [I-501], at SMARCA2 [2], the Dmax was under 50% and the half-maximal degradation concentration (DC50) was over 1000 nM.

Regarding `Nc1nnc(-c2ccccc2O)cc1N1CC2CCC(C1)N2c1ncc(C2CCN(CCCCCCNC(=O)COc3ccc4c(c3)CCCN4C(=O)CCl)CC2)cn1` [I-529], at SMARCA2 [2], the Dmax is under 50% and the DC50 was over 1000 nM.

Turning to `Cc1ncsc1-c1ccc(CNC(=O)[C@@H]2C[C@@H](O)CN2C(=O)[C@@H](NC(=O)[C@H]2CC[C@H](CN3CCC(c4cnc(N5C6CCC5CN(c5cc(-c7ccccc7O)nnc5N)C6)nc4)CC3)CC2)C(C)(C)C)c(C(F)(F)F)c1` [I-398], on SMARCA2 [2], the Dmax fell in the range of 50 to 70% and the 50% degradation concentration (DC50) is 501 to 1000 nM.

With `Cn1c(=O)n(C2CCC(=O)NC2=O)c2cccc(CN3CCC(OC4CCN(Cc5ccc(C#Cc6cc(NC(=O)Nc7cc(F)ncc7CO)ccn6)cc5)CC4)CC3)c21` (stereo not shown) [I-305], at SMARCA2 [2], the maximal degradation (Dmax) is under 50% and the DC50 was over 1000 nM.

Take `Cc1ncsc1-c1ccc(CNC(=O)[C@@H]2C[C@@H](O)CN2C(=O)[C@@H](NC(=O)[C@H]2CC[C@@H](c3ccc(CN4CCC(Cn5cc(-c6cc(-c7ccccc7O)nnc6N)cn5)CC4)cc3)CC2)C(C)(C)C)cc1` [I-379]: on SMARCA2 [2], the Dmax was over 90% and the half-maximal degradation concentration (DC50) was in the range of 100 to 500 nM.

In the case of `Cc1ncsc1-c1ccc(CNC(=O)[C@@H]2C[C@@H](O)CN2C(=O)[C@@H](NC(=O)CNCc2ccc(C#Cc3cc(NC(=O)Nc4cc(F)ncc4CO)ccn3)cc2)C(C)(C)C)cc1` [I-491], at SMARCA2 [2], the Dmax was under 50% and the DC50 is over 1000 nM.

As for `Cc1ncsc1-c1ccc(CNC(=O)[C@@H]2C[C@@H](O)CN2C(=O)[C@@H](NC(=O)C2CC3(CCN(CCN4CCC(Cn5cc(-c6cc(-c7ccccc7O)nnc6N)cn5)CC4)CC3)C2)C(C)(C)C)cc1` [I-381], on SMARCA2 [2], the greatest degradation seen (Dmax) is 50 to 70% and the 50% degradation concentration (DC50) fell in the range of 501 to 1000 nM.

Turning to `CN(Cc1cccc(C#Cc2cc(NC(=O)Nc3cc(F)ncc3CO)ccn2)c1)C1CCN(C(=O)c2cccc3c2n(C)c(=O)n3C2CCC(=O)NC2=O)CC1` (stereo not shown) [I-320], at SMARCA2 [2], the maximal degradation (Dmax) is under 50% and the half-maximal degradation concentration (DC50) is over 1000 nM.

On to `Cc1ncsc1-c1ccc(CNC(=O)[C@@H]2C[C@@H](O)CN2C(=O)[C@@H](NC(=O)C2CC3(CCN(Cc4cnc(N5C6CCC5CN(c5cc(-c7ccccc7O)nnc5N)C6)nc4)CC3)C2)C(C)(C)C)cc1` [I-394], for which, on SMARCA2 [2], the Dmax was over 90% and the 50% degradation concentration (DC50) fell in the range of 100 to 500 nM.

Regarding `CN(CCCOCCCc1cccc2c1n(C)c(=O)n2C1CCC(=O)NC1=O)Cc1ccc(C#Cc2cc(NC(=O)Nc3cc(F)ncc3CO)ccn2)cc1` (stereo not shown) [I-304], on SMARCA2 [2], the Dmax was under 50% and the DC50 was over 1000 nM.

As for `CN(Cc1ccc(C#Cc2cc(NC(=O)Nc3cc(F)ncc3CO)ccn2)cc1)C1CCN(C(=O)c2cccc3c2n(C)c(=O)n3C2CCC(=O)NC2=O)CC1` (stereo not shown) [I-311], at SMARCA2 [2], the Dmax was under 50% and the DC50 is over 1000 nM.

As for `COc1ccccc1-c1cc(N2CC3CCC(C2)N3c2ncc(C3CCN(CCCNC(=O)COc4ccc5c(c4)CCCN5C(=O)CCl)CC3)cn2)c(N)nn1` [I-527], on SMARCA2 [2], the Dmax is under 50% and the 50% degradation concentration (DC50) was over 1000 nM.

For `Cc1ncsc1-c1ccc(CNC(=O)[C@@H]2C[C@@H](O)CN2C(=O)[C@@H](NC(=O)[C@H]2CC[C@@H](N3CC(c4cnc(N5C6CCC5CN(c5cc(-c7ccccc7O)nnc5N)C6)nc4)C3)CC2)C(C)(C)C)cc1` [I-436], at SMARCA2 [2], the Dmax was over 90% and the 50% degradation concentration (DC50) was in the range of 100 to 500 nM.
